pIC50: −log10 of the molar value.
Target: T1, c-Kit (Homo sapiens, UniProt P10721)
T1 construct: whole cytoplasmic domain of c-Kit (aa 544-976); made in house; host or cells: Sf9 or High Five (baculovirus)
Assay: c-kit kinase inhibition
Type: biochemical
Details: Table 4

T1 sequence (P10721 544-976): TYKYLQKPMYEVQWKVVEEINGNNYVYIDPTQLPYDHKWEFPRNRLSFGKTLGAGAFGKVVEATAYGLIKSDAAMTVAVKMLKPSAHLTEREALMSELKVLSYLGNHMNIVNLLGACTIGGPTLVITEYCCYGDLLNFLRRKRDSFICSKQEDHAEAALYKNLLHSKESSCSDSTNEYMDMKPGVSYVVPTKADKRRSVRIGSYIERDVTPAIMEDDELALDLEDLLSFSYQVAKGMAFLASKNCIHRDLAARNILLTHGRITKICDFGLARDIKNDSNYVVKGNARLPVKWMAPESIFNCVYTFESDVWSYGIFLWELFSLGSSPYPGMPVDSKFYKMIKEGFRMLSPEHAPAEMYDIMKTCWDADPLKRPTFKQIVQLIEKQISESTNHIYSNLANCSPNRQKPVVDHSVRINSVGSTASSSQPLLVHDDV

pIC50	SMILES
> 5.00	CN1CCN(c2ccc(-c3cnn4c(N)c(-c5ccsc5)cnc34)cc2)CC1 [Example 21, 3-[4-(4-Methyl-piperazin-1-yl)-phenyl]-6-thiophen-3-yl-pyrazolo[1,5-a]pyrimidin-7-ylamine]
> 5.00	COc1cccc(-c2cnc3c(-c4cccc(N5CCN(C)CC5)c4)cnn3c2N)c1 [Example 24, 6-(3-Methoxy-phenyl)-3-[3-(4-methyl-piperazin-1-yl)-phenyl]-pyrazolo[1,5-a]pyrimidin-7-ylamine]
